Assay results as given in PubChem BioAssay (NCI).
Where “and” joins values, the source holds several entries; their conditions need not be identical. Identical values can stand only once.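 Method: 48-hour compound exposure of cells in 96-well plates, five concentrations, linear interpolation of endpoints. Abbreviation: GI50, concentration required for 50% inhibition of growth. The concentration for full growth arrest is given as TGI.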

Columns and labels:
Experiment in all cases: DTP human tumour cell line panel, 48 h
[1] = system: KM12 colon
[2] = system: OVCAR-8 ovarian
[3] = system: A549 NSCLC
[4] = system: TK-10 renal
[5] = system: NCI-H23 lung
[6] = system: UACC-257 melanoma
[7] = system: CAKI-1 renal
[8] = system: NCI-H460 lung
[9] = system: OVCAR-4 ovarian
[10] = system: HCT-15 colon

`COc1ccc(NC(=O)C2C(=O)N(c3ccc(OC)cc3)C(=O)/C2=N/O)cc1` (configuration not stated) gave a TGI [1] of 56.7 µM, a TGI [2] of 32 µM and a TGI [3] greater than 78.7 µM. For the same molecule, the TGI [4] was 52.3 µM, the TGI [5] was greater than 88.1 µM and the TGI [6] was greater than 80.5 µM. For the same molecule, the TGI [7] was greater than 77.3 µM, the TGI [8] was 46.4 µM and the TGI [9] was 31.6 µM. It also gave a TGI [10] greater than 100 µM.

`COc1ccc(-c2c(C3=NCCN3)nnn2-c2ccccc2)cc1` was tested, and the TGI [1] was greater than 100 µM, the TGI [2] was greater than 100 µM and the TGI [3] was greater than 100 µM. For the same molecule, the TGI [4] was greater than 100 µM, the TGI [5] was greater than 100 µM and the TGI [6] was greater than 100 µM. The TGI [7] was greater than 100 µM, the TGI [8] was greater than 100 µM and the TGI [9] was greater than 100 µM. For the same molecule, the TGI [10] was greater than 100 µM.

In the case of `CN1CCN(CCSC2Cc3cc(Cl)ccc3Sc3ccccc32)CC1` (configuration not stated), the TGI [1] is reported as 20.1 µM, the TGI [2] is reported as 19.4 µM and the TGI [3] is reported as 13.2 µM. The TGI [4] was 9.67 µM, the TGI [5] was 23.6 µM and the TGI [6] was 4.38 µM. It also gave a TGI [7] of 17.2 µM, a TGI [8] of 16.1 µM and a TGI [9] of 18.2 µM. For the same molecule, the TGI [10] was 12.2 µM.

Work on `C[CH2][Sn]1([CH2]C)[O]C(=O)[O][Sn]([CH2]C)([CH2]C)[O]1` yielded a GI50 [1] greater than 61.5 µM, a TGI [1] greater than 100 µM and a GI50 [2] of 14.2 µM. The TGI [2] was 20.4 µM, the GI50 [3] was greater than 65.4 µM and the TGI [3] was greater than 100 µM. For the same molecule, the GI50 [4] was 18.7 µM, the TGI [4] was 32.8 µM and the GI50 [5] was 17.9 µM. For the same molecule, the TGI [5] was 35 µM, the GI50 [6] was 17.8 µM and the TGI [6] was 33 µM. The GI50 [7] was 1.44 µM, the TGI [7] was 9.72 µM and the GI50 [8] was greater than 60.3 µM. For the same molecule, the TGI [8] was greater than 100 µM, the GI50 [9] was greater than 100 µM and the TGI [9] was greater than 100 µM. For the same molecule, the GI50 [10] was 25.3 µM and the TGI [10] was greater than 54.4 µM.

With `CC(=O)NC(CCCCNC(=O)OCc1ccccc1)C(=O)NCc1ccccc1` (configuration not stated) the TGI [1] was greater than 100 µM, the TGI [2] was greater than 100 µM and the TGI [3] was greater than 100 µM. It also gave a TGI [4] greater than 100 µM, a TGI [5] greater than 100 µM and a TGI [6] greater than 100 µM. For the same molecule, the TGI [7] was greater than 100 µM, the TGI [8] was greater than 100 µM and the TGI [9] was greater than 100 µM. The TGI [10] was greater than 100 µM.

`Cc1nc(N)sc1C(=O)/C=C/c1ccc(/C=C/C(=O)c2sc(NC(=O)CCCCCCCCC(=O)Nc3nc(C)c(C(=O)/C=C/c4ccc(/C=C/C(=O)c5sc(N)nc5C)cc4)s3)nc2C)cc1` showed a TGI [1] greater than 100 µM, a TGI [2] greater than 100 µM and a TGI [3] greater than 100 µM. For the same molecule, the TGI [4] was greater than 100 µM, the TGI [5] was greater than 100 µM and the TGI [6] was greater than 100 µM. It also gave a TGI [7] greater than 100 µM, a TGI [8] greater than 100 µM and a TGI [9] greater than 100 µM. The TGI [10] was greater than 100 µM.

`COC(=O)CCC/C=C\C[C@H]1C=CC(=O)/C1=C/C[C@@H](O)CCc1cccc(C(F)(F)F)c1` was tested, and the GI50 [1] was 1.9 µM, the TGI [1] was 4.23 µM and the GI50 [2] was 3.31 µM. It also gave a TGI [2] of 11.8 µM, a GI50 [3] of 3.55 µM and a TGI [3] of 12.2 µM. It also gave a GI50 [4] of 4.49 µM, a TGI [4] of 12.4 µM and a GI50 [5] of 2.03 µM. The TGI [5] was 5.18 µM, the GI50 [6] was 2.48 µM and the TGI [6] was 7.49 µM. For the same molecule, the GI50 [7] was 3.89 µM, the TGI [7] was 14.7 µM and the GI50 [8] was 2.35 µM. The TGI [8] was 5.57 µM, the GI50 [9] was 3.47 µM and the TGI [9] was 14.1 µM. It also gave a GI50 [10] of 1.67 µM and a TGI [10] of 4.18 µM.

`COc1cc(-c2cnn(C)c2)ccc1Nc1ncc2ccnc(N[C@@H](C)C(C)(C)C)c2n1` showed a GI50 [1] of 1.51 µM, a TGI [1] greater than 100 µM and a GI50 [2] greater than 49.6 µM. It also gave a TGI [2] greater than 100 µM, a GI50 [3] greater than 45.5 µM and a TGI [3] greater than 100 µM. For the same molecule, the GI50 [4] was greater than 79.9 µM, the TGI [4] was greater than 100 µM and the GI50 [5] was greater than 53.7 µM. For the same molecule, the TGI [5] was greater than 100 µM, the GI50 [6] was greater than 100 µM and the TGI [6] was greater than 100 µM. The GI50 [7] was greater than 100 µM, the TGI [7] was greater than 100 µM and the GI50 [8] was 0.819 µM. It also gave a TGI [8] greater than 100 µM, a GI50 [9] greater than 46.8 µM and a TGI [9] greater than 100 µM. It also gave a GI50 [10] of 0.651 µM and a TGI [10] greater than 100 µM.

Work on `COc1ccc2c(c1)sc1nc(-c3ccccc3)c(-c3ccsc3)n12` yielded a GI50 [1] of 3.7 µM, a TGI [1] greater than 100 µM and a GI50 [2] of 5.95 µM. It also gave a TGI [2] greater than 100 µM, a GI50 [3] of 5.02 µM and a TGI [3] greater than 100 µM. The GI50 [4] was 37.7 µM, the TGI [4] was greater than 100 µM and the GI50 [5] was 4 µM. The TGI [5] was greater than 100 µM, the GI50 [6] was greater than 100 µM and the TGI [6] was greater than 100 µM. The GI50 [7] was 5.04 µM, the TGI [7] was greater than 100 µM and the GI50 [8] was 4.45 µM. It also gave a TGI [8] greater than 100 µM, a GI50 [9] of 3.7 µM and a TGI [9] greater than 100 µM. It also gave a GI50 [10] of 2.91 µM and a TGI [10] greater than 100 µM.

With `CCN(CC)CCn1c2c3ccccc3ccc2c2oc(=O)c3ccccc3c21` the TGI [1] was greater than 100 µM, the TGI [2] was greater than 100 µM and the TGI [3] was greater than 100 µM. It also gave a TGI [4] greater than 100 µM, a TGI [5] greater than 100 µM and a TGI [6] greater than 100 µM. For the same molecule, the TGI [7] was greater than 100 µM, the TGI [8] was greater than 100 µM and the TGI [9] was 96.5 µM. It also gave a TGI [10] greater than 100 µM.

For `CCN(CC)CCNc1c(OC)cc(C)c2sc3ccccc3c(=O)c12`, the TGI [1] was 17.2 µM, the TGI [2] was 26.1 µM and the TGI [3] was 18 µM. For the same molecule, the TGI [4] was 21 µM, the TGI [5] was 29 µM and the TGI [6] was 3.6 µM. It also gave a TGI [7] of 20.6 µM, a TGI [8] of 18.9 µM and a TGI [9] of 14.8 µM. The TGI [10] was 14.4 µM.

Molecule `CC(=O)Oc1cc(C)ccc1[C@]1(C)CC[C@H](C)/C1=C\Br` has a GI50 [1] of 2.92 µM, a TGI [1] of 12 µM and a GI50 [2] of 5.05 µM. For the same molecule, the TGI [2] was 21 µM, the GI50 [3] was 4.98 µM and the TGI [3] was 17.3 µM. It also gave a GI50 [4] of 3.6 µM, a TGI [4] of 12.5 µM and a GI50 [5] of 6.54 µM. The TGI [5] was 20.3 µM, the GI50 [6] was 8.28 µM and the TGI [6] was 20.8 µM. The GI50 [7] was 3.53 µM, the TGI [7] was 14.3 µM and the GI50 [8] was 4.17 µM. For the same molecule, the TGI [8] was 15.2 µM, the GI50 [9] was 2.87 µM and the TGI [9] was 12.6 µM. For the same molecule, the GI50 [10] was 4.51 µM and the TGI [10] was 19.2 µM.

For `CC(=O)OCC1OC(n2c(-c3ccccc3)cc(-c3ccco3)c(C#N)c2=O)C(OC(C)=O)C(OC(C)=O)C1OC(C)=O` (configuration not stated), the GI50 [1] was 75 µM and 36.5 µM, the TGI [1] was greater than 100 µM and the TGI [2] was greater than 100 µM. It also gave a TGI [3] greater than 100 µM, a TGI [4] greater than 100 µM and a TGI [5] greater than 100 µM. For the same molecule, the TGI [6] was greater than 100 µM, the TGI [7] was greater than 100 µM and the TGI [8] was greater than 100 µM. For the same molecule, the TGI [9] was greater than 100 µM, the GI50 [10] was > 100 µM and 18.3 µM and the TGI [10] was greater than 100 µM.

Work on `COc1cc2c(cc1C)NC(=O)/C2=C\c1cc(OC)c(OC)c(OC)c1` yielded a GI50 [1] greater than 100 µM, a TGI [1] greater than 100 µM and a GI50 [2] greater than 100 µM. The TGI [2] was greater than 100 µM, the GI50 [3] was greater than 100 µM and the TGI [3] was greater than 100 µM. The GI50 [4] was 93.7 µM, the TGI [4] was greater than 100 µM and the GI50 [5] was 29.7 µM. It also gave a TGI [5] greater than 100 µM, a GI50 [6] of 91.2 µM and a TGI [6] greater than 100 µM. The GI50 [7] was greater than 100 µM, the TGI [7] was greater than 100 µM and the GI50 [8] was greater than 100 µM. For the same molecule, the TGI [8] was greater than 100 µM, the GI50 [9] was greater than 100 µM and the TGI [9] was greater than 100 µM. For the same molecule, the GI50 [10] was greater than 100 µM and the TGI [10] was greater than 100 µM.

In the case of `CCCCCCNC(=O)C1=C(C)NC(C)=C(C(=O)NCCCCCC)C1`, the TGI [1] is reported as greater than 100 µM, the TGI [2] is reported as greater than 100 µM and the TGI [3] is reported as greater than 100 µM. The TGI [4] was greater than 100 µM, the TGI [5] was greater than 100 µM and the TGI [6] was greater than 100 µM. The TGI [7] was greater than 100 µM, the TGI [8] was greater than 100 µM and the TGI [9] was greater than 100 µM. For the same molecule, the TGI [10] was greater than 100 µM.

Work on `O=C(Nc1ccc(Cl)cc1)Nc1ccc(Cl)c(Cl)c1` yielded a GI50 [1] of 3.31 µM, a TGI [1] of 13.8 µM and a GI50 [2] of 5.02 µM. The TGI [2] was greater than 100 µM, the GI50 [3] was 4.58 µM and the TGI [3] was greater than 100 µM. For the same molecule, the GI50 [4] was 7.64 µM, the TGI [4] was greater than 100 µM and the GI50 [5] was 3.34 µM. For the same molecule, the TGI [5] was greater than 100 µM, the GI50 [6] was 3.76 µM and the TGI [6] was greater than 100 µM. It also gave a GI50 [7] of 2.96 µM, a TGI [7] greater than 100 µM and a GI50 [8] of 2.77 µM. It also gave a TGI [8] of 12.6 µM, a GI50 [9] of 3.88 µM and a TGI [9] greater than 100 µM. For the same molecule, the GI50 [10] was 2.92 µM and the TGI [10] was 62.5 µM.
